Reference: ChEMBL document CHEMBL1201862, “PubChem BioAssay data set” (2004)
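Five compound concentrations were applied to cells in 96-well plates for 48 hours; endpoints were derived by simple linear interpolation of the resulting dose-response curve. Here, GI50 denotes the concentration required for 50% inhibition of growth.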 The source made the active and inactive calls. No stated cut-off is given here; in the data, active = GI50 up to about 1.1 µM and inactive = higher.

Columns and labels:
Experiment in all cases: DTP human tumour cell line panel, 48 h
A498 = tested on: A498
UACC-257 = tested on: UACC-257
OVCAR-4 = tested on: OVCAR-4
SF-295 = tested on: SF-295
SK-OV-3 = tested on: SK-OV-3
IGROV-1 = tested on: IGROV-1
HCT-116 = tested on: HCT-116
786-0 = tested on: 786-0
OVCAR-3 = tested on: OVCAR-3
KM12 = tested on: KM12
SK-MEL-28 = tested on: SK-MEL-28
NCI-H226 = tested on: NCI-H226
HT-29 = tested on: HT-29
RXF 393 = tested on: RXF 393
HOP-62 = tested on: HOP-62
HCT-15 = tested on: HCT-15
RPMI-8226 = tested on: RPMI-8226
HOP-92 = tested on: HOP-92

Row | SMILES | GI50 (A498) | GI50 (UACC-257) | GI50 (OVCAR-4) | GI50 (SF-295) | GI50 (SK-OV-3) | GI50 (IGROV-1) | GI50 (HCT-116) | GI50 (786-0) | GI50 (OVCAR-3) | GI50 (KM12) | GI50 (SK-MEL-28) | GI50 (NCI-H226) | GI50 (HT-29) | GI50 (RXF 393) | GI50 (HOP-62) | GI50 (HCT-15) [µM] | GI50 (RPMI-8226) | GI50 (HOP-92)
1 | CC(=O)Nc1ccc(-c2nnc(SCC(=O)Nc3ccccc3Cl)o2)cc1 | > 100 µM (inactive) | > 100 µM (inactive) | > 100 µM (inactive) | > 100 µM (inactive) | > 100 µM (inactive) | > 100 µM (inactive) | 44.1 µM (inactive) | > 100 µM (inactive) | 93.1 µM (inactive) | > 100 µM (inactive) | > 100 µM (inactive) | > 100 µM (inactive) | 80.4 µM (inactive) | > 100 µM (inactive) | > 100 µM (inactive) | > 100 | – | –
2 | O=C(Nc1ccc(Cl)cc1Cl)OC(Cn1cncn1)c1ccc(Cl)cc1Cl (centres undefined) | 20 µM (inactive) | 17 µM (inactive) | 14.4 µM (inactive) | 17.4 µM (inactive) | 18.3 µM (inactive) | 16.9 µM (inactive) | 14.1 µM (inactive) | 19 µM (inactive) | 15.8 µM (inactive) | 17.2 µM (inactive) | 16.3 µM (inactive) | 19.7 µM (inactive) | 15.2 µM (inactive) | 16.9 µM (inactive) | 19.5 µM (inactive) | 16.6 | 94.6 µM (inactive) | –
3 | CC(C)(C)c1cc(CCC(=O)Nc2ccc(Cl)cc2)nc(NC#N)n1 | – | > 100 µM (inactive) | > 100 µM (inactive) | > 100 µM (inactive) | > 100 µM (inactive) | > 100 µM (inactive) | > 100 µM (inactive) | > 100 µM (inactive) | > 100 µM (inactive) | > 100 µM (inactive) | > 100 µM (inactive) | > 100 µM (inactive) | > 100 µM (inactive) | – | > 100 µM (inactive) | > 100 | – | 91 µM (inactive)
4 | CCP(C)(C)=O | > 100 µM (inactive) | > 100 µM (inactive) | > 100 µM (inactive) | > 100 µM (inactive) | > 100 µM (inactive) | > 100 µM (inactive) | – | > 100 µM (inactive) | > 100 µM (inactive) | > 100 µM (inactive) | > 100 µM (inactive) | – | > 100 µM (inactive) | > 100 µM (inactive) | > 100 µM (inactive) | > 100 | > 100 µM (inactive) | –
5 | CC(C)N(C(=O)C12C3C4C1C1C2C3C41C(=O)O)C(C)C (centres undefined) | > 100 µM (inactive) | > 100 µM (inactive) | > 100 µM (inactive) | > 100 µM (inactive) | > 100 µM (inactive) | > 100 µM (inactive) | > 100 µM (inactive) | > 100 µM (inactive) | > 100 µM (inactive) | > 100 µM (inactive) | > 100 µM (inactive) | > 100 µM (inactive) | > 100 µM (inactive) | – | > 100 µM (inactive) | > 100 | > 100 µM (inactive) | –
